In ChEMBL document CHEMBL1139656, “Aminoalkyl phenyl sulfones--a novel series of 5-HT7 receptor ligands” (Bioorg Med Chem Lett, 2006):

Key:
[1] = molecular target: T1, 5-hydroxytryptamine receptor 7 (Homo sapiens, UniProt P34969); experiment: Displacement of [3H]5-HT from the cloned human 5-HT7 receptor expressed in CHO cells; format: cell-based
[2] = molecular target: Voltage-gated inwardly rectifying potassium channel KCNH2 (Homo sapiens, UniProt Q12809); experiment: Displacement of [35S]-labeled MK-499 from cloned human ERG receptor expressed in HEK cells; format: cell-based, HEK293
[3] = molecular target: D(2) dopamine receptor (Homo sapiens, UniProt P14416); experiment: Displacement of [3H]spiperone from the cloned human D2 receptor expressed in CHO cells; format: cell-based
[4] = molecular target: T2, 5-hydroxytryptamine receptor 1A (Homo sapiens, UniProt P08908); experiment: Displacement of [3H]5-HT from the cloned human 5-HT1A receptor expressed in HeLa cells; format: cell-based
T2 sequence (P08908 whole entry): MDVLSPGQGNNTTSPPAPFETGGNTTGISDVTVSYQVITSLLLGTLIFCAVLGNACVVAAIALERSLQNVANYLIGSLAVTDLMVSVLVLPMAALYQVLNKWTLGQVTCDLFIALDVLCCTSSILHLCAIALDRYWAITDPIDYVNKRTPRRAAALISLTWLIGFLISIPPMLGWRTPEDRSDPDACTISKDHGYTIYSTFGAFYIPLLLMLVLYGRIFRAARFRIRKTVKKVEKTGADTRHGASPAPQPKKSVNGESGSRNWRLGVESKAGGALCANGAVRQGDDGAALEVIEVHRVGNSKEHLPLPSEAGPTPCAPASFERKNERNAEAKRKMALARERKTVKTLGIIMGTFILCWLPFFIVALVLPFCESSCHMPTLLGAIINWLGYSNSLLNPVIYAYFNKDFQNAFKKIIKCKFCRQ

[5] = molecular target: T3, Adrenergic receptor alpha-1 (Rattus norvegicus, UniProt P15823+P23944+P43140); experiment: Displacement of [3H]prazosin from alpha-1 adrenergic receptor in rat cortex
T3 sequence (P15823 whole entry): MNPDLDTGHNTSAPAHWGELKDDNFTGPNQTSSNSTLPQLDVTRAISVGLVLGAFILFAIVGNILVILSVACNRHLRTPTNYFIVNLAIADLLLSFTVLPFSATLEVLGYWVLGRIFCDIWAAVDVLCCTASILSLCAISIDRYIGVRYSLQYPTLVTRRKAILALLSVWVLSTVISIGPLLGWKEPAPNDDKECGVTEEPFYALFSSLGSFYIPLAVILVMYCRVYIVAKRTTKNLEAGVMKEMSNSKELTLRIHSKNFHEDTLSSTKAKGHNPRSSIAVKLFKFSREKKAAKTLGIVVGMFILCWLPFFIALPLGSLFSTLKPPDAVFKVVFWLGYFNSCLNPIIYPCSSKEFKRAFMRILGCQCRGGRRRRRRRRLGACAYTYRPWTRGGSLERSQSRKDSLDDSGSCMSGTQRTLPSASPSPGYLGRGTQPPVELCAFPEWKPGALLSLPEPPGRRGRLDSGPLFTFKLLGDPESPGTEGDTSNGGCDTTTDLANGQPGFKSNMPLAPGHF
T3 sequence (P23944 whole entry): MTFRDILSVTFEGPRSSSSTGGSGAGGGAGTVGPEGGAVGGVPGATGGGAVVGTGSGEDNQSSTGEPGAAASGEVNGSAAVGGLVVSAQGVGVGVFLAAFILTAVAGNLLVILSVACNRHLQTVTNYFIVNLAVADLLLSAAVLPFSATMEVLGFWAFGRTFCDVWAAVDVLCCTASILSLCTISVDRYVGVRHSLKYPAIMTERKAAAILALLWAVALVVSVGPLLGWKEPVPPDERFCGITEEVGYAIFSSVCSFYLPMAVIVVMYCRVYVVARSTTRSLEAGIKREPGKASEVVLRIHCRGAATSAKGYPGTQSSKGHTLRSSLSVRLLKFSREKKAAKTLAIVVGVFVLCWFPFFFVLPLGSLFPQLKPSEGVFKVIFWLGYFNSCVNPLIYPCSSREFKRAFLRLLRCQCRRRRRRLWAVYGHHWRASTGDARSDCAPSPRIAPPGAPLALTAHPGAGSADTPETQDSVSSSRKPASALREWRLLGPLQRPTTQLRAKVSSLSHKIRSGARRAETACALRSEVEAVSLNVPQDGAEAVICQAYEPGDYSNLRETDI
T3 sequence (P43140 whole entry): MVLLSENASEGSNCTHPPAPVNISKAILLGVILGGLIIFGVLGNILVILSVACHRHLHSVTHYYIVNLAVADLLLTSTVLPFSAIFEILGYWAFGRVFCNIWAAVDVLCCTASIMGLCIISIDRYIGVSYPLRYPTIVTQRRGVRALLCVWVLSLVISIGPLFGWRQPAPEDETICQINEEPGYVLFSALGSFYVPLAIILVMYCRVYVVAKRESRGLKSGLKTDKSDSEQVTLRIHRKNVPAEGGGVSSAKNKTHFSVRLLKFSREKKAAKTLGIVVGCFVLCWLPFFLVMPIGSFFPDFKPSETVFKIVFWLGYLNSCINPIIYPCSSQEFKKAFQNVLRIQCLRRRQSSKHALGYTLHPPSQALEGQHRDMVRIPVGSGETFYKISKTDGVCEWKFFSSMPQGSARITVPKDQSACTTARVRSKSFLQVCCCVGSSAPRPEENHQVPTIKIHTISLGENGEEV

[6] = molecular target: T1, 5-hydroxytryptamine receptor 7; experiment: Activity towards human 5-HT7 receptor at 10 uM relative to 5-CT; format: functional
[7] = molecular target: 5-hydroxytryptamine receptor 1B (Homo sapiens, UniProt P28222); experiment: Displacement of [3H]5-HT from the cloned human 5-HT1B receptor expressed in CHO cells; format: cell-based
[8] = molecular target: 5-hydroxytryptamine receptor 2A (Homo sapiens, UniProt P28223); experiment: Displacement of [3H]ketanserin from the cloned human 5-HT2A receptor expressed in CHO cells; format: cell-based
Chain of 5-hydroxytryptamine receptor 2A (P28223 whole entry): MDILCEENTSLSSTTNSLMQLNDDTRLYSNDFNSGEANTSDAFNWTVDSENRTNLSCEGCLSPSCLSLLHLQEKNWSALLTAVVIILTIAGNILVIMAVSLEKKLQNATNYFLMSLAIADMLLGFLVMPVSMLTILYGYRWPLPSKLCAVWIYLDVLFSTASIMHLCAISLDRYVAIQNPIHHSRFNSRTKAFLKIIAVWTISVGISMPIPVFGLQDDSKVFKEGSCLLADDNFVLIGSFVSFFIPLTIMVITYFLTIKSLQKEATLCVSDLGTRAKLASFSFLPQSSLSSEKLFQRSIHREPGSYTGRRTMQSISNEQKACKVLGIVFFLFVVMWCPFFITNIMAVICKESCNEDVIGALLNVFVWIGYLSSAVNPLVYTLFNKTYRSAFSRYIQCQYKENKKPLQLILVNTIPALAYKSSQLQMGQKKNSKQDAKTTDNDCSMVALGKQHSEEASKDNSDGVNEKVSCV

Chain of 5-hydroxytryptamine receptor 1B (P28222 whole entry): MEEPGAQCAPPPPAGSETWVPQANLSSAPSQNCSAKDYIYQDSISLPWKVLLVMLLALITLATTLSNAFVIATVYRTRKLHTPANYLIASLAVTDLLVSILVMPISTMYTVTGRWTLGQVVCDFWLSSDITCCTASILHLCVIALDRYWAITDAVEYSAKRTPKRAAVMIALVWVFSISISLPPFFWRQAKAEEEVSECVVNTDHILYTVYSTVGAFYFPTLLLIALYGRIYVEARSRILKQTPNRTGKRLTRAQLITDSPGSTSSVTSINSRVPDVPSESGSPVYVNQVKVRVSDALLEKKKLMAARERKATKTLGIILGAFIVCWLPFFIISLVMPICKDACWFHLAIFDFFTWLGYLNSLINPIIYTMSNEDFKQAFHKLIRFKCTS
Chain of Voltage-gated inwardly rectifying potassium channel KCNH2 (Q12809 whole entry): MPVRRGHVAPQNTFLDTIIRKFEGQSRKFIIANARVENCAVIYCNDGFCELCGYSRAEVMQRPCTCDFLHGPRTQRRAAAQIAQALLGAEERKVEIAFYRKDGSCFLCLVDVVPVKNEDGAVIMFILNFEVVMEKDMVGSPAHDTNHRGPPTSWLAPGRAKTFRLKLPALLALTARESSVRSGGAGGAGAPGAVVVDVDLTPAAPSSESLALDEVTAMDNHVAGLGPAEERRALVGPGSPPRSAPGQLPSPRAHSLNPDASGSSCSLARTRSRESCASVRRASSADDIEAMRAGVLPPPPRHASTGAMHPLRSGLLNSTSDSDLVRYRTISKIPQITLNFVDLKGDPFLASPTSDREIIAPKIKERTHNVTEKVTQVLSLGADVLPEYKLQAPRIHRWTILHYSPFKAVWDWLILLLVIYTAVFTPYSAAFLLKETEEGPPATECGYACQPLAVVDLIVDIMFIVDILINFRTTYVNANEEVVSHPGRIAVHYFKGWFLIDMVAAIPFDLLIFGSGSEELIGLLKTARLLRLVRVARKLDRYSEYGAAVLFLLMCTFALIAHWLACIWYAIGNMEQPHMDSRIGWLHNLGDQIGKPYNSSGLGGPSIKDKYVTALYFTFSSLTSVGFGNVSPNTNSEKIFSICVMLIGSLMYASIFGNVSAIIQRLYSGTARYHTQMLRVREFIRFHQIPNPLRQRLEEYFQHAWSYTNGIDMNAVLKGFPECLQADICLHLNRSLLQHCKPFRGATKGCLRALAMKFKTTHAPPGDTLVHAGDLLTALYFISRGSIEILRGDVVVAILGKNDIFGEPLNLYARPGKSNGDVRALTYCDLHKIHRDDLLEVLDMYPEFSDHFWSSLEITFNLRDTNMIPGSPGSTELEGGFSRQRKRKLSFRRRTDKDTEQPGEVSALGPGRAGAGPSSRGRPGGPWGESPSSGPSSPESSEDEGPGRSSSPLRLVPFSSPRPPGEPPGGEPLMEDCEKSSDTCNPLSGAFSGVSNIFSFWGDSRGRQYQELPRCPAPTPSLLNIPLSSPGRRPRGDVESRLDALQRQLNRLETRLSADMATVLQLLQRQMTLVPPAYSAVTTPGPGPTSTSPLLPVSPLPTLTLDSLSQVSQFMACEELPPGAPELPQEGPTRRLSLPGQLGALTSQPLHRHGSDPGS
T1 sequence (P34969 whole entry): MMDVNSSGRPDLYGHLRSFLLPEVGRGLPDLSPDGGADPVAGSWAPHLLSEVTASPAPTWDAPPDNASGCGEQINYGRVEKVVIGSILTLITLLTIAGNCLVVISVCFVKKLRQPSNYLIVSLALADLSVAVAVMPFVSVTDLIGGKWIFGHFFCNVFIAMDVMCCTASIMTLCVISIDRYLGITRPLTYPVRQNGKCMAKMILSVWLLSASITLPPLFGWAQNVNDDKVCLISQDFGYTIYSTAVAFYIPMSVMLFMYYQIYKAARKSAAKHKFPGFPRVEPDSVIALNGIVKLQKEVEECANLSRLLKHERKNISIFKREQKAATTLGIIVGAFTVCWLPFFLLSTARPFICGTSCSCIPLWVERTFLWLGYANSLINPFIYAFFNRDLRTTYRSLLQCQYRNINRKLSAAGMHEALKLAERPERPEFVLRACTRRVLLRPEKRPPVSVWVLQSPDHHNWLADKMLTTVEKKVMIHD
Chain of D(2) dopamine receptor (P14416 whole entry): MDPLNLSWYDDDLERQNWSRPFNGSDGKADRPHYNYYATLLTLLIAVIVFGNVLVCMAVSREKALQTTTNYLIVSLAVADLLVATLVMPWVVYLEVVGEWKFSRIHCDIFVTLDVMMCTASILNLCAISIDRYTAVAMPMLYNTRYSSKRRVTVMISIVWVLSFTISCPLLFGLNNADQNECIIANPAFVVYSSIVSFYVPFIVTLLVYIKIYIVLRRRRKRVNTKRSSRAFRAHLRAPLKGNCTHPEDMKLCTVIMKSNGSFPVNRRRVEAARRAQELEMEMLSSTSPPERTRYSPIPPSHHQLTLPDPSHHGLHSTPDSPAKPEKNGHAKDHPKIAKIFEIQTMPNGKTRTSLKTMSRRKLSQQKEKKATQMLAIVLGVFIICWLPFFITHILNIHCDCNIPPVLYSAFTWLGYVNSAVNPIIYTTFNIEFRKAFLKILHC

| SMILES | Ki [1] [nM] | Ki [2] [nM] | Ki [3] [nM] | Ki [4] [nM] | Ki [5] [nM⁻¹] | Activity [6] [%] | Ki [7] [nM] | Ki [8] [nM] |
| --- | --- | --- | --- | --- | --- | --- | --- | --- |
| CC1CCN(CCCC2(S(=O)(=O)c3ccccc3)CCC2)CC1 | 550 | – | – | – | – | – | – | – |
| CC(C)(CCCN1CCCC(c2cnco2)C1)S(=O)(=O)c1ccccc1 (racemic) | 15 | > 8000 | 1500 | > 7000 | > 4000 | 12 | > 5000 | > 1000 |
| CN1CCN(CCCC2(S(=O)(=O)c3ccccc3)CCC2)CC1 | 5800 | – | – | – | – | – | – | – |
| CN(C)CCCC1(S(=O)(=O)c2ccccc2)CCC1 | > 7000 | – | – | – | – | – | – | – |
| CC(C)(CCCN1CCCC(C(F)(F)F)C1)S(=O)(=O)c1ccccc1 (racemic) | 54 | > 5000 | > 1000 | > 7000 | > 4000 | 0 | > 7000 | > 2000 |
| O=S(=O)(c1ccccc1)C1(CCCN2CCc3ccccc3C2)CCC1 | 8 | – | – | 35 | – | 5 | – | 65 |
| O=S(=O)(c1ccccc1)C1(CCCN2CCN(c3ccccc3)CC2)CCC1 | 22 | – | – | – | – | – | – | – |
| CC(C)(CCCN1CCCC(c2ccccc2)C1)S(=O)(=O)c1ccccc1 (racemic) | 7 | > 5000 | 220 | 400 | 540 | 0 | 7700 | 1800 |
| O=S(=O)(c1ccccc1)C1(CCCCN2CCC(c3ccccc3)C2)CCC1 (racemic) | 13 | – | – | – | – | – | – | – |
| O=S(=O)(c1ccccc1)C1(CCCN2CCC(c3ccccc3)CC2)CCC1 | 26 | – | – | – | – | – | – | – |
| CCOC(=O)[C@H]1CCCN(CCCC(C)(C)S(=O)(=O)c2ccccc2)C1 | 455 | – | – | – | – | – | – | – |
| CCOC(=O)[C@@H]1CCCN(CCCC(C)(C)S(=O)(=O)c2ccccc2)C1 | 24 | – | 710 | 2400 | > 4000 | 0 | > 7000 | 1870 |
| O=S(=O)(c1ccccc1)C1(CCCN2CCC3CCCCC3C2)CCC1 (racemic) | 6 | – | – | 210 | – | 39 | – | 570 |
| O=S(=O)(c1ccccc1)C1(CCCN2CCCCC2)CCC1 | 2700 | – | – | – | – | – | – | – |
| O=S(=O)(c1ccccc1)C1(CCCN2CCC(c3ccccc3)C2)CCC1 (racemic) | 9 | – | – | – | – | – | – | – |
| O=S(=O)(c1ccccc1)C1(CCCN2CCOCC2)CCC1 | > 7000 | – | – | – | – | – | – | – |
| CC(C)(CCCN1CC[C@@H]2CCCC[C@H]2C1)S(=O)(=O)c1ccccc1 (racemic) | 8 | > 4000 | 900 | 1500 | 3900 | 83 | > 7000 | 2000 |
| O=S(=O)(c1ccccc1)C1(CCN2CCC(c3ccccc3)C2)CCC1 (racemic) | 53 | – | – | – | – | – | – | – |
| O=S(=O)(CCCCN1CCC2CCCCC2C1)c1ccccc1 (racemic) | 96 | – | – | – | – | – | – | – |
